Consider 20 compounds from US7928210B2, “Nucleoside based proliferation imaging markers” (Siemens Medical Solutions USA, Inc., priority 2007, dated 2011).

In one data set the test system is A431 tumor bearing mice. Kind of data set: In vivo imaging of A431 tumor bearing mice (clearance, tumor localization, tumor ratios). More on the design: species or system mouse. The settings on record: for Type of Clearance / Localization within the tumor: in vivo (rodents), A431 tumor; for Ratio T/B: tumor to background, p.i. 45 min; for Ratio T/M: tumor to muscle.

The conditions of data set [1]: cited from earlier work.
Data set [2] addresses T1, human thymidine kinase 1 (hTK1) (Homo sapiens, UniProt P04183).
T1 sequence (P04183 1-234): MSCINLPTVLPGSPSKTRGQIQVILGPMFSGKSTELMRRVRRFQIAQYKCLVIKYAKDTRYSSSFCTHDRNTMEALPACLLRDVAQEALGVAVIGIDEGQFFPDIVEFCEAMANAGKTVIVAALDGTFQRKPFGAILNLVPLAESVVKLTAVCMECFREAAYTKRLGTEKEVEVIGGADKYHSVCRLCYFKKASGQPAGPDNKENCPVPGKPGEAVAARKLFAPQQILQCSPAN
Kind of data set: hTK-1 kinase phosphorylation, metabolites monitored by LC/MS-SIM. The settings on record: in vitro.

Data set [3] deals with SK-N-MC cell line (human brain neuroepithelioma, high S phase). Kind of data set: Cancer cell uptake, SK-N-MC. The settings on record: for Cell Uptake: (ii) SK-N-MC; for Uptake and intracellular retention: SK-N-MC cells in vitro.
The test system of data set [4] is A431 cell line (human skin epidermoid carcinoma, high S phase). The experiment in a line: Cancer cell uptake, A431. As to conditions: (i) A431.
For another data set, the system named is DNA. Kind of data set: Incorporation into DNA compared against FMAU. The data set is classed as cell-based. The settings on record: data not shown.
The subject of data set [5] is A172 cell line (human brain glioblastoma, low S phase). The experiment in a line: Cancer cell uptake, A172. The settings on record: for Cell Uptake: (iii) A172; for Uptake and intracellular retention: A172 cells in vitro.
The test system of the next data set is Balb/3T12-3 cells. Kind of data set: Cell uptake, Balb/3T12-3. As to conditions: for Cell Uptake: (iv) Balb/3T12-3; for Uptake and intracellular retention: BalB/3T12-3 cells in vitro.
Data set [6] relates to human liver cancer cells (HepG2). The experiment in a line: Liver cell uptake by LC/MS-SIM, human liver cancer cells. Type of data set: cell-based. As to conditions: HepG2, in vitro. The source says:
(§1) The mouse liver cell uptake of a small number of thymidine analogs was higher than FLT and thymidine, and the levels of human liver cell uptake were similar to FLT and thymidine. Ideally, low levels of liver cell uptake help increase the tumor to background ratios in the PET image. Furthermore, we examined the metabolic profile of the leads (Ta-1, Ta-4, and Ta-10) in vitro using normal mouse liver cell line (AML12) and human liver cancer cell line (HepG2).

The subject of data set [7] is normal mouse liver cells (AML12). Kind of data set: Liver cell uptake by LC/MS-SIM, normal mouse liver cells. The settings on record: AML12, in vitro. Type of data set: cell-based.
From the text: as §1

Entries after “also recorded” stand apart in the source; their conditions may differ.

Regarding `Cc1cn([C@H]2CC(F)[C@@H](CO)O2)c(=O)[nH]c1=O` (stereo partly shown) [FLT, 3′-[^18F]fluoro-3′-deoxythymidine, reference compound], in the data set with A431 tumor bearing mice, the “Type of Clearance” value is listed as “Clear through renal system; localize within the tumor”. In addition, the “Injected dose per gram in tumors, on average” value in data set [1] (background section) is listed as 5%. In data set [2], the “Pi % (phosphorylation percentage)” value is listed as 31%.

With `Cc1cn([C@H]2CC(n3cc(CF)nn3)[C@@H](CO)O2)c(=O)[nH]c1=O` (stereo partly shown) [FLT-Click-1], in the data set with A431 tumor bearing mice, the “Type of Clearance” value is on record as “Clear very rapidly from the blood; localize mainly in the bladder”. In [2], the “Pi % (phosphorylation percentage)” value is reported as 6.1%.

Consider `Cc1cn([C@H]2CC(F)[C@@H](CO)O2)c(=O)n(Cc2cn(CCF)nn2)c1=O` (stereo partly shown) [FLT-Click-2], for which, in the data set on A431 tumor bearing mice, the “Localization within the tumor” value is recorded as not above 1 % ID/g, the “Type of Clearance” value is “Clear through the gut/ hepatobiliary system; localize moderately within the tumor” and the “Ratio T/B” value is recorded as 1.75 (T/B; (p.i. 45 min). Also, the “Pi % (phosphorylation percentage)” value in [2] came out at 4.5%. In addition, the “Cell Uptake” value in data set [3] is 0.080. Besides, in data set [4], the “Cell Uptake” value is reported as 0.003.

On to `O=c1[nH]c(=O)n([C@H]2CC(O)[C@@H](CO)O2)cc1-c1cn(CCF)nn1` (stereo partly shown) [FLT-Click-3], for which, in the data set on A431 tumor bearing mice, the “Type of Clearance” value is “Clear through the gut; but did not localize within the tumor” and the “Ratio T/B” value is reported as 1.1 (T/B; p.i. 45 min). The “Pi % (phosphorylation percentage)” value in [2] came to 0%.

As for `Cc1cn([C@@H]2O[C@H](CO)C(O)C2F)c(=O)[nH]c1=O` (stereo partly drawn) [FMAU, 1-(2′-deoxy-2′-[^18F]fluoro-β-D-arabinofuranosyl)-5-methyluracil, reference compound], the “Incorporation into DNA” value with DNA is “very high”. Also, the “Type of Clearance” value in [1] (known / literature (Sun et al. 2005 for FMAU; 11C label for thymidine)) is “Hepatobiliary clearance^c”. Further, the “Cell Uptake” value in data set [5] is 0.015; in [3], 0.011; in [4] it was 0.012. Besides, the “Pi % (phosphorylation percentage)” value in data set [2] turned out to be 80%.

`Cc1cn([C@H]2CC(O)[C@@H](CO)O2)c(=O)n(Cc2cn(CCF)nn2)c1=O` (stereo partly shown) [Ta-1]: the “Cell Uptake” value with Balb/3T12-3 cells was 0.064; in data set [5], 0.042; in [3], 0.081; in data set [4], 0.045. Also, the “Uptake and intracellular retention” value in the data set with Balb/3T12-3 cells is “favorably taken up and retained intracellularly”; in data set [5], “favorably taken up and retained intracellularly”; in data set [3] it was “favorably taken up and retained intracellularly”. For the same compound, the “Localization within the tumor” value in the data set with A431 tumor bearing mice is not above 1 % ID/g. For the same compound, in the data set with A431 tumor bearing mice, the “Type of Clearance” value is “despite rapid gut clearance, a small percentage of the inject dose penetrated and localized within the tumor; also recorded: Clear through the gut/ hepatobiliary system; localize mainly in the gut; a small percentage of the inject dose penetrate and localize within the tumor”. The “Ratio T/M” value in the data set with A431 tumor bearing mice (p.i. 50 min) is 2.1 (T/M; p.i. 50 min). Also, the “Pi % (phosphorylation percentage)” value in [2] amounted to 65.6%.

In the case of `Cc1cn([C@H]2CC(O)[C@@H](CO)O2)c(=O)n(Cc2cn(Cc3cc(F)ccn3)nn2)c1=O` (stereo partly shown) [Ta-2], the “Cell Uptake” value came out at 0.090 with Balb/3T12-3 cells, 0.071 in data set [5], 0.030 in data set [3] and 0.019 in [4]. In addition, the “Pi % (phosphorylation percentage)” value in [2] amounted to 39.2%.

For the compound `Cc1cn([C@H]2CC(O)[C@@H](CO)O2)c(=O)n(Cc2cn([C@H](C(=O)NCc3cc(F)ccn3)C(C)C)nn2)c1=O` (stereo partly shown) [Ta-3], the “Cell Uptake” value with Balb/3T12-3 cells was found to be 0.117; in data set [5], 0.093; in data set [3], 0.059; in data set [4] it was 0.004. Besides, the “Type of Clearance” value in the data set on A431 tumor bearing mice was “large localization of the tracer in the gut and clearance through the bowels; also recorded: Clear through the bowels; localize mainly in the gut”. In data set [2], the “Pi % (phosphorylation percentage)” value stood at 25.5%.

Take `Cc1cn([C@H]2CC(O)[C@@H](CO)O2)c(=O)n(CCF)c1=O` (stereo partly shown) [Ta-4, 3-N-(2′-[^18F]fluoroethyl)-thymidine]: the “Uptake and intracellular retention” value with Balb/3T12-3 cells was “favorably taken up and retained intracellularly”; in [5] it was “favorably taken up and retained intracellularly”; in data set [3] it was “favorably taken up and retained intracellularly”. The Liver cell uptake entry in [6] and in [7] was “less than Ta-1” in each case. For the same compound, the “Incorporation into DNA” value in the data set on DNA is recorded as “substantially lower”. Besides, the “Localization within the tumor” value in the data set with A431 tumor bearing mice is 2-3.5 % ID/g. In the data set on A431 tumor bearing mice, the “Type of Clearance” value is “has less liver uptake than Ta-1, localizes more strongly within the A-431 based tumor and possesses a clearance mechanism similar to FLT; also recorded: Less liver uptake than Ta-1; localize more strongly within the A431 based tumor; possess a clearance mechanism similar to FLT”. Also, in the data set with A431 tumor bearing mice (p.i. 50 min), the “Ratio T/M” value is 2.3 (T/M; p.i 50 min). Further, the figures for the “Cell Uptake” value in data set [5], in data set [3] and in data set [4] were 0.142, 0.218 and 0.172, respectively. Further, the “Pi % (phosphorylation percentage)” value in data set [2] is given as 77.4%.

For `Cc1cn([C@H]2CC(O)[C@@H](CO)O2)c(=O)n(Cc2cn(Cc3cccc(Br)c3)nn2)c1=O` (stereo partly shown) [Ta-4D], the “Pi % (phosphorylation percentage)” value in data set [2] is listed as 51.9%.

In the case of `Cc1cn([C@H]2CC(F)[C@@H](CO)O2)c(=O)n(CCF)c1=O` (stereo partly shown) [Ta-4F], the “Cell Uptake” value in [5] is recorded as 0.067; in data set [3], 0.063; in data set [4] it was 0.075. In addition, the “Pi % (phosphorylation percentage)” value in data set [2] is listed as 9.2%.

In the case of `Cc1cn([C@H]2CC(O)[C@@H](CO)O2)c(=O)n(CCn2cc(CF)nn2)c1=O` (stereo partly shown) [Ta-5], the “Cell Uptake” value is 0.051 in data set [5], 0.072 in data set [3] and 0.068 in data set [4]. For the same compound, the “Pi % (phosphorylation percentage)” value in data set [2] worked out at 10.2%.

On to `Cc1cn([C@H]2CC(F)[C@@H](CO)O2)c(=O)n(CCF)c1=O` (stereo partly shown) [Ta-6], for which the entries for the “Cell Uptake” value in [5], in [3] and in data set [4] were 0.004, 0.007 and 0.023, respectively. In [2], the “Pi % (phosphorylation percentage)” value turned out to be 4.5%.

For the compound `Cc1cn([C@@H]2O[C@H](CO)C(O)C2OCCF)c(=O)[nH]c1=O` (stereo partly shown) [Ta-7], the “Localization within the tumor” value in the data set with A431 tumor bearing mice is on record as not above 1 % ID/g. Moreover, the “Type of Clearance” value in the data set with A431 tumor bearing mice was “Clear through the gut/ hepatobiliary system; localize mainly in the gut; a small percentage of the inject dose penetrate and localize within the tumor”. In addition, the “Ratio T/M” value in the data set with A431 tumor bearing mice (time not given) is 1.05 (T/M). For the same compound, the figures for the “Cell Uptake” value in data set [5], in data set [3] and in [4] were 0.004, 0.083 and 0.027, respectively. Also, the “Pi % (phosphorylation percentage)” value in [2] worked out at 5.6%.

For `Cc1cn([C@@H]2O[C@H](CO)C(O)C2O)c(=O)n(CCF)c1=O` (stereo partly shown) [Ta-8], the “Localization within the tumor” value in the data set on A431 tumor bearing mice is on record as not above 1 % ID/g. Besides, the “Type of Clearance” value in the data set on A431 tumor bearing mice is recorded as “Clear through the renal system; localize moderately within the tumor”. For the same compound, the “Ratio T/M” value in the data set with A431 tumor bearing mice (time not given) is listed as 0.99 (T/M). Also, the “Cell Uptake” value in [5] is given as 0.018; in data set [3], 0.097; in [4] it was 0.052. In addition, in [2], the “Pi % (phosphorylation percentage)” value is 18.2%.

Regarding `Cc1cn([C@@H]2O[C@H](CO)C(O)C2F)c(=O)n(CCF)c1=O` (stereo partly shown) [Ta-9], the “Cell Uptake” value is reported as 0.009 in [5], 0.014 in [3] and 0.027 in data set [4]. For the same compound, the “Pi % (phosphorylation percentage)” value in data set [2] was found to be 1.4%.

In the case of `Cc1cn([C@H]2CC(O)[C@@H](CO)O2)c(=O)n(CC(O)CF)c1=O` (stereo partly shown) [Ta-10], the “Incorporation into DNA” value in the data set on DNA is on record as “substantially lower”. Further, the “Localization within the tumor” value with A431 tumor bearing mice was not above 1 % ID/g. Besides, the “Type of Clearance” value in the data set on A431 tumor bearing mice is “Clear through the gut/renal system; localize moderately within the tumor”. Besides, in the data set on A431 tumor bearing mice (time not given), the “Ratio T/M” value is given as 0.35 (T/M). The figures for the “Cell Uptake” value in data set [5], in data set [3] and in [4] were 0.017, 0.031 and 0.023, respectively. Further, the “Pi % (phosphorylation percentage)” value in [2] turned out to be 27.5%.

`Cc1cn([C@@H]2O[C@H](CO)C(O)C2O)c(=O)n(CCF)c1=O` (stereo partly shown) [Ta-11]: the “Localization within the tumor” value in the data set on A431 tumor bearing mice is not above 1 % ID/g. Besides, the “Type of Clearance” value in the data set on A431 tumor bearing mice is listed as “Clear through the renal system; localize moderately within the tumor”. Further, the “Ratio T/M” value in the data set on A431 tumor bearing mice (time not given) is 0.52 (T/M). The “Cell Uptake” value in [5] is 0.006; in data set [3], 0.02; in [4], 0.03. In addition, the “Pi % (phosphorylation percentage)” value in data set [2] is reported as 9.8%.

As to `Cc1cn([C@H]2CC(O)[C@@H](CO)O2)c(=O)n(CCCF)c1=O` (stereo partly shown) [Ta-14], the “Incorporation into DNA” value in the data set on DNA is reported as “substantially lower”.

On to `Cc1cn([C@H]2CC(O)[C@@H](CO)O2)c(=O)n(Cc2cn([C@H](C(=O)NCc3ccccc3)C(C)C)nn2)c1=O` (stereo partly shown) [Ta-6233], for which the “Pi % (phosphorylation percentage)” value in [2] was found to be 71.5%.
